Results on one compound are retold here after patent EP2276483B1, “SOLID FORMS COMPRISING (+)-2-[1-(3-ETHOXY-4-METHOXYPHENYL)-2-METHYLSULFONYLETHYL]-4-ACETYLAMINOISOINDOLINE-1,3-DIONE, COMPOSITIONS THEREOF, AND USES THEREOF” (CELGENE CORPORATION, priority 2008, dated 2009).

In data set [1] the target is T1, PDE6 from bovine retinal rod outer segments (Bos taurus, UniProt P11541+P23439).
T1 construct: PDE6 from bovine retinal rod outer segments; from tissue; host or cells: bovine retinal rod outer segments
T1 sequence (P11541 2-856 limits assumed): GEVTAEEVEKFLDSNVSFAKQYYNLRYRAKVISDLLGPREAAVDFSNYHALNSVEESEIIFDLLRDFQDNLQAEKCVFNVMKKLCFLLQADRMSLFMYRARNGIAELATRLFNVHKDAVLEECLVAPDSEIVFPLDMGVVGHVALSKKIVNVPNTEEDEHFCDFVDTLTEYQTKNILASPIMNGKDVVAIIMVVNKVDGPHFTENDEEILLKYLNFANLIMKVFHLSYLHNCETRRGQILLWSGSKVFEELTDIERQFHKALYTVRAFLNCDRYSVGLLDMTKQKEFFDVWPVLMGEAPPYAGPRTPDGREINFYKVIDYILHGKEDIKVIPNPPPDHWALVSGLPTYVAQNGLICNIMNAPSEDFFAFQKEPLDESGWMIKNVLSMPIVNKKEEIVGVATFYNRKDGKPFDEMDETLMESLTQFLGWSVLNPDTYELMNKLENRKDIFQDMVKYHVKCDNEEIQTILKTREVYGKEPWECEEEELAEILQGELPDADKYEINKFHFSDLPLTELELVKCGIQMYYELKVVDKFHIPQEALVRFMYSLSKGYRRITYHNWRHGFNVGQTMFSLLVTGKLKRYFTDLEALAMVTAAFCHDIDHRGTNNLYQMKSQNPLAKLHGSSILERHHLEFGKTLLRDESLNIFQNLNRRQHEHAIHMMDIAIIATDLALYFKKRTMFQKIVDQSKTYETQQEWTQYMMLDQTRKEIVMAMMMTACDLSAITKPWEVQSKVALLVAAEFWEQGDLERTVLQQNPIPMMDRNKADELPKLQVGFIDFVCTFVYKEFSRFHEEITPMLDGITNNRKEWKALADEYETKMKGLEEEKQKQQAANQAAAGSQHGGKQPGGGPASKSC
T1 sequence (P23439 2-850 limits assumed): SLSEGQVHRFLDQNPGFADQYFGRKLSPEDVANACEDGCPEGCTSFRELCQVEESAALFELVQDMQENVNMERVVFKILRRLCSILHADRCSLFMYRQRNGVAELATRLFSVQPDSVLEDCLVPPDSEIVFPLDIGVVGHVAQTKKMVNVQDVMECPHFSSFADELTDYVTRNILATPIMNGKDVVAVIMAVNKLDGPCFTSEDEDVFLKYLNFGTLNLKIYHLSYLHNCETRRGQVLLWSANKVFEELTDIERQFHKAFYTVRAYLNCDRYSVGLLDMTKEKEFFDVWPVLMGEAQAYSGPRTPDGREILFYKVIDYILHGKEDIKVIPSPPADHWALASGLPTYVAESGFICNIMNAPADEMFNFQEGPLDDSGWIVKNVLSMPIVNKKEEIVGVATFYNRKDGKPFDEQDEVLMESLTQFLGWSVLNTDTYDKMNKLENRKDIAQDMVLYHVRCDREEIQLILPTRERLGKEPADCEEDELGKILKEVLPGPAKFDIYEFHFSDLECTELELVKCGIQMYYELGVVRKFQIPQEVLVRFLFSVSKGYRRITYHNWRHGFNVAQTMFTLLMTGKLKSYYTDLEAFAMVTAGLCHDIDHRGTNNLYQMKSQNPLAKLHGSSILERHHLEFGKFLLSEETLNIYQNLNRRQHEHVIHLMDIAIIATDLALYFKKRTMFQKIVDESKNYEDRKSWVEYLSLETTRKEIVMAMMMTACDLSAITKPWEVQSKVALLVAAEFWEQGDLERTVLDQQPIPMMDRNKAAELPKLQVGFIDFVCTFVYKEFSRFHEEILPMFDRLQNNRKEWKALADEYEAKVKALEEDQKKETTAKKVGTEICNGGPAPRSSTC
In words: PDE6 enzyme assay. The format is biochemical.

The subject of the next data set is IL-2. In words: cells. The format is cell-based. To be noted: Homo sapiens, PBMC, read-out: IL-2 IC50.
In another data set the test system is LTB4. In words: fMLF-induced LTB4 production in neutrophils. The format is cell-based. Conditions: Neutrophil; human neutrophils; 1 µM fMLF. The method, then: N-formyl-methionine-leucine-phenylalanine (fMLF) is a bacterially derived peptide that activates neutrophils to rapidly degranulate, migrate, adhere to endothelial cells, and release leukotriene LTB4, a product of arachidonic acid metabolism and itself a neutrophil chemoattractant. Compounds were tested for the ability to block fMLF-induced neutrophil LTB4 production as previously described (Hatzelmann and Schudt, 2001, J. Pharm. Exp. Ther., 297:267-279), with the following modifications. Neutrophils were isolated as described above and resuspended in phosphate-buffered saline without calcium or magnesium (BioWhittaker) containing 10 mM HEPES pH 7.2 and plated in 96-well tissue culture plates at a concentration of 1.7 x 10^6 cells/well. Cells were treated with 50 µM thimerosal (Sigma)/1 mM CaCl2/1 mM MgCl2 for 15 minutes at 37°C 5% CO2, then treated with compounds at 1000, 200, 40, 8, 1.6, 0.32, 0.064, and 0 nM in a final DMSO concentration of 0.01 % in duplicate for 10 minutes. Neutrophils were stimulated with 1 µM fMLF for 30 minutes, then lysed by the addition of methanol (20% final concentration) and frozen in a dry ice/isopropanol bath for 10 minutes. Lysates were stored at -70°C until the LTB4 content was measured by competitive LTB4 ELISA (R&D Systems).

Data set [2] deals with subjects with moderate to severe plaque-type psoriasis. In words: Phase 2 randomized double-blind placebo-controlled study in moderate to severe plaque-type psoriasis. The format is in vivo, human. The method, then: This phase 2, multicenter, randomized, double-blind, placebo-controlled, parallel-group, dose-comparison study evaluated the efficacy and safety of Compound A in subjects with moderate to severe plaque-type psoriasis who were candidates for systemic therapy.
This study included a 12-week treatment phase followed by a 4-week observational follow-up phase. A total of 260 subjects were randomized to receive Compound A 20 mg BID, Compound A 20 mg QD, or placebo for 12 weeks. The primary endpoint for this study was the proportion of subjects treated with Compound A who achieved a 75% reduction in Psoriasis Area and Severity Index score ("PASI-75") at week 12/last treatment in reference to the baseline visit. Last treatment is defined as the last PASI assessment completed during the 12-week treatment phase.

[3] abbreviates: 20 mg BID, week 12/last treatment.

As a reminder, the IC50 is the concentration needed to halve the response being measured. `CCOc1cc(C(CS(C)(=O)=O)N2C(=O)c3cccc(NC(C)=O)c3C2=O)ccc1OC` (single isomer, unassigned; (+)) [Compound A, (+)-2-[1-(3-ethoxy-4-methoxyphenyl)-2-methylsulfonylethyl]-4-acetylaminoisoindoline-1,3-dione]: the “PDE Specificity Ratio PDE4/PDE6” value in data set [1] (from above data) is over 40000 fold. Also, the inhibition at 10 µM in data set [1] (read-out: PDE6 (% inhib at 10 µM)) is -6%. For the same compound, the IC50 in the data set on IL-2 was determined as 291 nM. For the same compound, in the data set on LTB4, the IC50 came to 2.48 nM. Further, the “study drug-related serious adverse events” value in data set [2] (20 mg BID or 20 mg QD for 12 weeks) is given as “No study drug-related serious adverse events”. Further, in data set [2] (setting [3]), the “mean decrease in PASI from baseline” value turned out to be 52%, the “proportion of subjects who achieved PASI-50” value amounted to 57% and the “proportion of subjects who achieved PASI-90” value was 14%. In addition, the “proportion of subjects who achieved a PASI-75” value in data set [2] (20 mg BID, week 12/last treatment, P=0.023 vs placebo) amounted to 24%. Also, the tolerability and safety result in data set [2] (12 weeks of treatment) is “well tolerated and safe”.
